According to patent US20220274967A1, “BCAT MODULATION” (Icagen, LLC, priority 2019, published 2022):
Where two headings read alike, the source gives them in different places.

Experiments:
[1] = target: T1, BCAT1 (Homo sapiens, UniProt P54687); test: BCAT1 enzyme inhibition (human), Glutamate Glo luminescence; format: biochemical
T1 sequence (P54687 1-386): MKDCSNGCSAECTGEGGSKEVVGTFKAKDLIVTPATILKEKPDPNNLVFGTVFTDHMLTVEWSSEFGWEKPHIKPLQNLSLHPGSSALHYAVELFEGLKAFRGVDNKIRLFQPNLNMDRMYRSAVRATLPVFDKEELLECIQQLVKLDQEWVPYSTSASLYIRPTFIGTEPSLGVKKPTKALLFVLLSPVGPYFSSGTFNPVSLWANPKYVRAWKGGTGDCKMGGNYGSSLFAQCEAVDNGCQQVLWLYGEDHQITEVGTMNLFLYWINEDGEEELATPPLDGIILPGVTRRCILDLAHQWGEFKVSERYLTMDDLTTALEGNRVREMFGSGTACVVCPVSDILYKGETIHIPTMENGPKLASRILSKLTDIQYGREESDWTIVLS
How it was run: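 BCAT1 enzyme (0.06 ug/ml final) was preincubated with compound (3-0.0001 μM, 0.3% DMSO) for 10 or 60 min at room temperature in 50 mM Tris/0.05% TWEEN-20. The reaction then ran 10 min with 300 μM L-leucine and 250 μM alpha-ketoglutaric acid, was acid-quenched, and glutamate was read by luminescence. IC50 came from a 4-parameter fit, normalized to 10 μM VS558CSA inhibition.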

[2] = 3-HIB assay in vitro, direct MS assay of conditioned media; format: cell-based, human; conditions: GM00371 cells, read-out: 3HIB INHIBITION IC50 (μM) MEAN GM00371 cells Direct MS Assay
Method: Cell Plating: Cells (Coriell Institute GM00371 cells) were plated (96-well clear bottom sterile plate; Greiner 655098) at 10,000 cells/0.1 mL in Eagle's minimum essential medium (EMEM)/15% FBS (Gibco 16000-044) with a Combi dispenser in a cell culture hood and incubated at 37° C. and 5% CO2 overnight.
Compound Dilution: Compound were prepared as 33.3× intermediate dilution in DMSO in 96 well round polystyrene plates. For 30 μM final maximum start with 30 μL of 10 mM in DMSO. 10-12 1:3 serial dilutions were prepared from left to right (20 μL+40 μL DMSO). A 10× secondary dilution was prepare in EMEM by taking 7.5 μL 33.3× and transfer to replicate 96 well round polystyrene plates and then adding 242.5 μL EMEM A 1× final dilution in EMEM was prepared by taking 50 μL 10× dilution and transferring to replicate 96 well polypropylene assay block (Costar 3956) and adding 450 μL EMEM A control was prepared for maximal compound inhibition by taking 20 μL 10 mM Reference Compound A and adding 40 μL DMSO for a concentration of 3.3 mM To 7.5 μL of the 3.3 mM Reference Compound A solution and added 242.5 μL EMEM to make a 100 μM solution. The subsequent Reference Compound A solution was diluted with EMEM to achieve a final concentration of 10 μM. The structure of Reference Compound A is:
A control was prepared for maximal compound toxicity by taking 7.5 μL Reference Compound B and 242.5 μL EMEM to make […]. 50 μL of that 100 μM Reference Compound B solution was combined with 450 μL EMEM to achieve a concentration of 30 μM. The structure of Reference Compound B is
A DMSO Control was prepared by dilution 7.5 μL with 242.5 μL EMEM and taking 50 μL of the subsequent solution and diluting with 450 μL EMEM.
Compound Treatment: Media was aspirated from the cells and 100 μL of D-PBS (ThermoFisher 14190144) was added and then removed. 100 μL of diluted compound was added to the cells in the place and the cells were incubated at 37° C. and 5% CO2 for 24 hours.
Collection of Conditioned Media: For 3HIB MS detection: 20 μL conditioned media was removed from the cells and was transferred to a labeled replicate 96 well polypropylene assay plate (VWR 62408-946). And the plate was heat sealed and stored at −80° C.
3HIB Derivatization (Generalized SOP): The media collected for 3HIB MS detection was derivatized under the following conditions. Buffer: 0.1M 1-Ethyl-3-(3-dimethylaminopropyl)carbodiimide (EDC) dissolved in 0.1 M 2-(N-morpholino)ethanesulfonic acid ([…]) adjusted to pH 5.6. Buffer prep: weighed 10.6 g MES (Sigma #M-5287) per 500 mL HPLC grade H2O. Stored at 4° C.; 0.1M EDC: Weighed 1.971 g EDC (#E-1769) per 100 mL MES. Adjusted pH to 5.6 with ˜40 drops of 1N NaOH and stored at 4° C. Buffer has a short half-life should be used within two weeks.
Derivatization: To 20 μL sample was added 60 μL 5 uM 3HIB-4C13 internal standard followed by 20 μL EDC in MES and 100 μL MES. The plate was sealed and incubate at 50° C. for […] then centrifuged at 4000 rpm at 6° C. for 10 minutes. LC-MS analysis was then conducted and the data was processed using standard methods.

[3] = test system: GM00371 cells; test: Viability assay (Cell titer glo) in the 3-HIB assay; format: cell-based, human; conditions: read-out: 3HIB INHIBITION IC50 (μM) MEAN GM00371 cells Viablility Assay
How it was run: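 GM00371 cells (10,000/well, EMEM/15% FBS) were exposed for 24 h at 37 °C to compounds in 1:3 serial dilution from 30 μM top concentration in EMEM. Reference Compound B at 30 μM served as maximal-toxicity control. Viability read as CellTiter-Glo luminescence.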

[4] = target: T2, BCAT2 (Homo sapiens, UniProt O15382); test: BCAT2 enzyme inhibition (human); format: biochemical
T2 sequence (O15382 28-392): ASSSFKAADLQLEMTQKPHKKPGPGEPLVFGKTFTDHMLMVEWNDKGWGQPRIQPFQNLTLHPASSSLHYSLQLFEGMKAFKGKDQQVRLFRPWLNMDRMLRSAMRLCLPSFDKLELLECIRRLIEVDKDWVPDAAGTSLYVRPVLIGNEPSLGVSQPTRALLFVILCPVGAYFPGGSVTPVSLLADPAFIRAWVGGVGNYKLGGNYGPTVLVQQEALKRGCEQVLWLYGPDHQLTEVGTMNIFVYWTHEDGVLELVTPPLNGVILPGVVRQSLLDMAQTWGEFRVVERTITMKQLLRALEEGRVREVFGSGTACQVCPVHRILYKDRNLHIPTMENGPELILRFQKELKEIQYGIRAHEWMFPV
How it was run: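 Cell-free coupled fluorescent assay: human BCATm converts branched-chain amino acids and α-ketoglutarate to L-glutamate, which L-glutamate oxidase and HRP link to resorufin formation from Amplex Red; activity taken as reduced glutamate signal.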

Row | Compound | IC50 [1] [µM] | IC50 ([2]; 24 hours) [µM] | IC50 ([3]; 24 hours) [µM] | IC50 [4] [µM] | IC50 ([2]; Homo sapiens, 24 h) [µM] | IC50 ([3]; Homo sapiens, 24 h) [µM] | IC50 ([3]; Homo sapiens, 24 hours) [µM]
1 | CNC(=O)c1ccc2c(c1)nc(-c1ccccn1)n2[C@@H]1CCC[C@H](NC(=O)c2ccc(Br)s2)C1 [Compound 105] | 0.5 to 1 | 0.1 to 0.5 | 0.5 to 1 | – | – | – | –
2 | CNC(=O)c1ccc2c(c1)nc(-c1ncccc1F)n2[C@H]1CCC[C@@H](NC(=O)c2ccc(Cl)s2)C1 [Compound 197] | < 0.1 | – | – | < 0.1 | < 0.1 | – | –
3 | O=C(N[C@@H]1CCC[C@H](n2c(-c3ccccn3)nc3cc(Cl)ncc32)C1)c1ccc(Br)s1 [Compound 296] | – | – | – | < 0.1 | 0.1 to 0.5 | 0.5 to 1 | –
4 | CNC(=O)c1ccc2c(c1)nc(-c1c(O)cccc1F)n2[C@H]1CCC[C@@H](NC(=O)c2ccc(Cl)s2)C1 [Compound 177] | – | – | – | < 0.1 | < 0.1 | 0.1 to 0.5 | –
5 | CNC(=O)c1ccc2c(c1)nc(-c1cccs1)n2[C@H]1CCC[C@@H](NC(=O)c2ccc(Br)s2)C1 [Compound 193] | 0.5 to 1 | – | – | – | 0.1 to 0.5 | – | 0.5 to 1
6 | CNC(=O)c1ccc2c(c1)nc(-c1ncccc1F)n2[C@H]1CCC[C@@H](NC(=O)c2ccc(Br)s2)C1 [Compound 199] | < 0.1 | – | – | < 0.1 | < 0.1 | – | –
7 | CNC(=O)c1ccc2c(c1)nc(-c1ccccn1)n2[C@@H]1CCC[C@H](NC(=O)c2ccc(Br)s2)C1 [Compound 102] | ≥ 1 | 0.5 to 1 | – | – | – | – | 0.5 to 1
8 | CNC(=O)c1ccc2c(c1)nc(-c1ccccn1)n2[C@@H]1CCC[C@H](NC(=O)c2cccc(Br)c2)C1 [Compound 116] | – | – | – | > 1 | ≥ 1 | ≥ 1 | –
9 | CNC(=O)c1ccc2c(c1)nc(-c1ncccc1O)n2[C@H]1CCC[C@@H](NC(=O)c2ccc(Br)s2)C1 [Compound 152] | – | – | – | < 0.1 | 0.1 to 0.5 | 0.1 to 0.5 | –
10 | CNC(=O)c1ccc2c(c1)nc(-c1cc(F)ccc1F)n2[C@H]1CCC[C@@H](NC(=O)c2ccc(Br)s2)C1 [Compound 175] | – | – | – | < 0.1 | < 0.1 | 0.1 to 0.5 | –
11 | CNC(=O)c1ccc2c(c1)nc(-c1ccccc1SC(F)(F)F)n2[C@H]1CCC[C@@H](NC(=O)c2ccc(Br)s2)C1 [Compound 128] | – | – | – | 0.5 to 1 | ≥ 1 | ≥ 1 | –
12 | CNC(=O)c1ccc2c(c1)nc(-c1ccccn1)n2[C@@H]1CCC[C@H](NC(=O)c2ccc(C(F)(F)F)s2)C1 [Compound 113] | – | – | – | < 0.1 | ≥ 1 | 0.5 to 1 | –
13 | CNC(=O)c1ccc2c(c1)nc(-c1ccccc1SC(F)(F)F)n2[C@H]1CCC[C@@H](NC(=O)c2ccc(C#N)s2)C1 [Compound 127] | – | – | – | 0.5 to 1 | ≥ 1 | ≥ 1 | –
14 | CNC(=O)c1ccc2c(c1)nc(-c1ccccn1)n2[C@H]1CC[C@@H](NC(=O)c2ccc(C#N)s2)C1 [Compound 131] | – | – | – | 0.5 to 1 | ≥ 1 | ≥ 1 | –
15 | CNC(=O)c1ccc2c(c1)nc(-c1ncccc1C#N)n2[C@H]1CCC[C@@H](NC(=O)c2ccc(Br)s2)C1 [Compound 185] | – | – | – | < 0.1 | 0.5 to 1 | 0.5 to 1 | –
16 | N#Cc1ccc(C(=O)N[C@@H]2CCC[C@H](n3c(-c4ccccn4)nc4cc(CO)ccc43)C2)s1 [Compound 133] | – | – | – | 0.1 to 0.5 | ≥ 1 | ≥ 1 | –
